The record followed here is patent publication US20260069571A1, “DDR1 AND DDR2 INHIBITORS FOR THE TREATEMENT OF CANCER AND FIBROTIC DISEASES” (REDX PHARMA PLC, priority 2021, published 2026).

One assay has as its target Recombinant human DDR1 (Homo sapiens (Human), UniProt Q08345). Put plainly: LanthaScreen Eu Kinase Binding Assay, DDR1. To be noted: DDR1 2.5 nM (aa440-876, GST tag), Kinase Tracer 178 5 nM; for IC50: read-out: DDR1 pIC50 (converted). As to the method:
(§1) DDR1 and DDR2 Biochemical Assay Method
(§2) The capacity of compounds to bind to DDR1 and DDR2 was quantified using a LanthaScreen Eu Kinase Binding Assay. Recombinant human DDR1 (2.5 nM; aa440-876 containing a GST tag) and DDR2 (1.75 nM; aa427-855 containing a GST tag) were diluted in assay buffer (50 mM HEPES pH7.3, 10 mM MgCl2, 1 mM EGTA and 0.01% Tween) with various concentrations of compound in a 384-well plate and a volume of 5 uL. After a 30-minute incubation at room temperature, 2.5 uL of Eu-anti GST antibody (diluted to 1 nM in assay buffer) plus Kinase Tracer 178 (diluted in assay buffer to 5 nM for DDR1 and 10 nM for DDR2) were added to the plate. Following 60-minute incubation at room temperature, time-resolved fluorescence was measured on a BMG Labtech PHERAstar plate reader. DMSO (1%) and reference compound (1 μM) were used to generate the Max and Min assay signals, respectively. Data was analysed using a four-parameter logistic model to calculate IC50 values, with at least two independent replicates were performed for each compound.
For orientation: TR-FRET usually uses a lanthanide donor and a delayed reading to cut background.

The target in a further assay is Recombinant human DDR2 (Homo sapiens (Human), UniProt Q16832). Description: LanthaScreen Eu Kinase Binding Assay, DDR2. To be noted: DDR2 1.75 nM (aa427-855, GST tag), Kinase Tracer 178 10 nM; for IC50: read-out: DDR2 pIC50 (converted). The protocol:
as §1, §2

A value given as a limit tells only on which side of the number the result lay.

Chain of Recombinant human DDR2 (Q16832 427-855): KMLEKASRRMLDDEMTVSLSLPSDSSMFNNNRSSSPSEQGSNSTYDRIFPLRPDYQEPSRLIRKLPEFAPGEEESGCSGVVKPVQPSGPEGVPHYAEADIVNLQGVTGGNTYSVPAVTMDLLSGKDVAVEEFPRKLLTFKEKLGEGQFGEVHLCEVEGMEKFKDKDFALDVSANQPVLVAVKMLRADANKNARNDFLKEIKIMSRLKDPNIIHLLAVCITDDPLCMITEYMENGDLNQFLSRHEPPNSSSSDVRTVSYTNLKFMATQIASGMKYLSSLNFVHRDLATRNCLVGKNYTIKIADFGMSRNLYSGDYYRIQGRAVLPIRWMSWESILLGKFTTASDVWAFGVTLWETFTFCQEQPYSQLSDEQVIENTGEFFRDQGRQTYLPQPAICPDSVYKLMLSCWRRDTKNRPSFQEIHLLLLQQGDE
Chain of Recombinant human DDR1 (Q08345 other isoform, or with tags, fused parts or gaps): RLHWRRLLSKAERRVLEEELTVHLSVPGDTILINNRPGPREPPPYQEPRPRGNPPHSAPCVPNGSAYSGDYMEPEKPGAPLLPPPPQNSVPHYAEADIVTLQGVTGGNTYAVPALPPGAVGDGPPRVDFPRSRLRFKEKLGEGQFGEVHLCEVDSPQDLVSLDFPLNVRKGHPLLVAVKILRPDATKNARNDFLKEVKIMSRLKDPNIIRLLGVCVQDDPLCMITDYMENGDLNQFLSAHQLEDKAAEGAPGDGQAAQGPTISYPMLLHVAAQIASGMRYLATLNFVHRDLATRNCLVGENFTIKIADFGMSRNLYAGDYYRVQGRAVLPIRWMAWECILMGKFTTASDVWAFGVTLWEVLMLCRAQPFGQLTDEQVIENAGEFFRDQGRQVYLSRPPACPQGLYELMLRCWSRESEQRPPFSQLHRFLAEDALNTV

In the case of `Cn1ncc2cc(Nc3cccc4c3C(=O)N(CC(=O)N3CCO[C@@H](C(F)(F)F)C3)C4)cnc21` [Example 55, 7-[(1-methylpyrazolo[3,4-b]pyridin-5-yl)amino]-2-[2-oxo-2-[(2R)-(trifluoromethyl)morpholin-4-yl]ethyl]isoindolin-1-one], the IC50 on Recombinant human DDR1 and on Recombinant human DDR2 was 100 to 1000 nM in each case.
With `Cn1ncc2cc(Nc3cccc4c3C(=O)N(CC(=O)N3CCC[C@H]3CF)C4)cnc21` [Example 56, 7-[(1-methylpyrazolo[3,4-b]pyridin-5-yl)amino]-2-[2-oxo-2-[(2S)-(fluoromethyl)pyrrolidin-1-yl]ethyl]isoindolin-1-one], the IC50 at Recombinant human DDR1 and at Recombinant human DDR2 was 10 to 100 nM throughout.
On to `Cn1ncc2cc(Nc3cccc4c3C(=O)N(CC(=O)N3CCOC[C@@H]3C(F)(F)F)C4)cnc21` [Example 57, 7-[(1-methylpyrazolo[3,4-b]pyridin-5-yl)amino]-2-[2-oxo-2-[(3R)-(trifluoromethyl)morpholin-4-yl]ethyl]isoindolin-1-one], for which the IC50 on Recombinant human DDR1 and at Recombinant human DDR2 was no less than 1000 nM throughout.
With `Cn1ncc2cc(Nc3cccc4c3C(=O)N(CC(=O)N3CCC[C@H]3C(F)F)C4)cnc21` [Example 58, 7-[(1-methylpyrazolo[3,4-b]pyridin-5-yl)amino]-2-[2-oxo-2-[(2S)-(difluoromethyl)pyrrolidin-1-yl]ethyl]isoindolin-1-one], the “DDR1 pIC50” value at Recombinant human DDR1 is listed as “A (pIC50>8)”. The IC50 at Recombinant human DDR2 was 10 to 100 nM.
In the case of `Cn1ncc2cc(Nc3cccc4c3C(=O)N(CC(=O)Nc3cccc(C(F)(F)F)c3)C4)cnc21` [Example 59, 2-[7-[(1-methylpyrazolo[3,4-b]pyridin-5-yl)amino]-1-oxo-isoindolin-2-yl]-N-[3-(trifluoromethyl)phenyl]acetamide], the IC50 on Recombinant human DDR1 is 10 to 100 nM; on Recombinant human DDR2 it was 100 to 1000 nM.
With `N#Cc1cc(Nc2cccc3c2C(=O)N(CC(=O)NCC(F)(F)F)C3)cc2cn[nH]c12` [Example 60, 2-[7-[(7-cyano-1H-indazol-5-yl)amino]-1-oxo-isoindolin-2-yl]-N-(2,2,2-trifluoroethyl)acetamide], the “DDR1 pIC50” value at Recombinant human DDR1 is recorded as “A (pIC50>8)”. Besides, the “DDR2 pIC50” value on Recombinant human DDR2 is listed as “A (pIC50>8)”.
As for `Cc1n[nH]c2nc(Nc3cccc4c3C(=O)N(CC(=O)NCC(F)(F)F)C4)ccc12` [Example 61, 2-[7-[(3-methyl-1H-pyrazolo[3,4-b]pyridin-6-yl)amino]-1-oxo-isoindolin-2-yl]-N-(2,2,2-trifluoroethyl)acetamide], the IC50 at Recombinant human DDR1 was 100 to 1000 nM. In addition, at Recombinant human DDR2, the “DDR2 pIC50” value is listed as “D (pIC50≤6)”.
Turning to `Cc1n[nH]c2cc(Nc3cccc4c3C(=O)N(CC(=O)NCC(F)(F)F)C4)cc(F)c12` [Example 62, 2-[7-[(4-fluoro-3-methyl-1H-indazol-6-yl)amino]-1-oxo-isoindolin-2-yl]-N-(2,2,2-trifluoroethyl)acetamide], at Recombinant human DDR1, the “DDR1 pIC50” value is reported as “A (pIC50>8)”. Also, on Recombinant human DDR2, the “DDR2 pIC50” value is recorded as “A (pIC50>8)”.
For `Cc1n[nH]c2cc(Nc3cccc4c3C(=O)N(CC(=O)N[C@@H](C)C(F)(F)F)C4)cc(F)c12` [Example 63, 2-[7-[(4-fluoro-3-methyl-1H-indazol-6-yl)amino]-1-oxo-isoindolin-2-yl]-N-[(1S)-2,2,2-trifluoro-1-methyl-ethyl]acetamide], the “DDR1 pIC50” value on Recombinant human DDR1 was “A (pIC50>8)”. The “DDR2 pIC50” value on Recombinant human DDR2 is reported as “A (pIC50>8)”.
On to `Cc1n[nH]c2cc(Nc3cccc4c3C(=O)N(CC(=O)N3CCC[C@H]3C(F)(F)F)C4)cc(F)c12` [Example 64, 7-[(4-fluoro-3-methyl-1H-indazol-6-yl)amino]-2-[2-oxo-2-[(2S)-(trifluoromethyl)pyrrolidin-1-yl]ethyl]isoindolin-1-one], for which the IC50 at Recombinant human DDR1 and on Recombinant human DDR2 was less than 10 nM in each case.
Turning to `Cc1n[nH]c2cc(Nc3cccc4c3C(=O)N(CC(=O)Nc3cnoc3)C4)cc(F)c12` [Example 65, 2-[7-[(4-fluoro-3-methyl-1H-indazol-6-yl)amino]-1-oxo-isoindolin-2-yl]-N-isoxazol-4-yl-acetamide], the IC50 at Recombinant human DDR1 is 100 to 1000 nM. For the same compound, the “DDR2 pIC50” value at Recombinant human DDR2 is given as “D (pIC50≤6)”.
On to `Cc1n[nH]c2cc(Nc3cccc4c3C(=O)N(CC(=O)N[C@@H](C)C(F)(F)F)C4)cnc12` [Example 66, 2-[7-[(3-methyl-1H-pyrazolo[4,3-b]pyridin-6-yl)amino]-1-oxo-isoindolin-2-yl]-N-[(1S)-2,2,2-trifluoro-1-methyl-ethyl]acetamide], for which the “DDR1 pIC50” value at Recombinant human DDR1 is “A (pIC50>8)”. Further, the “DDR2 pIC50” value at Recombinant human DDR2 is reported as “A (pIC50>8)”.
Take `Cc1n[nH]c2cc(Nc3cccc4c3C(=O)N(CC(=O)N3CCC[C@H]3C(F)(F)F)C4)cnc12` [Example 67, 7-[(3-methyl-1H-pyrazolo[4,3-b]pyridin-6-yl)amino]-2-[2-oxo-2-[(2S)-(trifluoromethyl)pyrrolidin-1-yl]ethyl]isoindolin-1-one]: the IC50 at Recombinant human DDR1 and on Recombinant human DDR2 was less than 10 nM in each case.
In the case of `Cc1n[nH]c2cc(Nc3cccc4c3C(=O)N(CC(=O)N3CCO[C@@H](C(F)(F)F)C3)C4)cnc12` [Example 68, 7-[(3-methyl-1H-pyrazolo[4,3-b]pyridin-6-yl)amino]-2-[2-oxo-2-[(2R)-(trifluoromethyl)morpholin-4-yl]ethyl]isoindolin-1-one], the IC50 at Recombinant human DDR1 is 10 to 100 nM; on Recombinant human DDR2, 100 to 1000 nM.
Take `Cc1n[nH]c2cc(Nc3cccc4c3C(=O)N(CC(=O)N3CCO[C@H](C(F)(F)F)C3)C4)cnc12` [Example 69, 7-[(3-methyl-1H-pyrazolo[4,3-b]pyridin-6-yl)amino]-2-[2-oxo-2-[(2S)-(trifluoromethyl)morpholin-4-yl]ethyl]isoindolin-1-one]: the IC50 on Recombinant human DDR1 was 10 to 100 nM; on Recombinant human DDR2 it was 100 to 1000 nM.
Consider `Cc1n[nH]c2cc(Nc3cccc4c3C(=O)N(CC(=O)N3CCOC[C@H]3C(F)(F)F)C4)cnc12` [Example 70, 7-[(3-methyl-1H-pyrazolo[4,3-b]pyridin-6-yl)amino]-2-[2-oxo-2-[(3S)-(trifluoromethyl)morpholin-4-yl]ethyl]isoindolin-1-one], for which the IC50 on Recombinant human DDR1 was 100 to 1000 nM; at Recombinant human DDR2, no less than 1000 nM.
Taken in the same sequence, the figures for `Cc1n[nH]c2cc(Nc3cccc4c3C(=O)N(CC(=O)N3CCOC[C@@H]3C(F)(F)F)C4)cnc12` [Example 71, 7-[(3-methyl-1H-pyrazolo[4,3-b]pyridin-6-yl)amino]-2-[2-oxo-2-[(3R)-(trifluoromethyl)morpholin-4-yl]ethyl]isoindolin-1-one] were 10 to 100 nM and 10 to 100 nM.
As for `C[C@H](NC(=O)CN1Cc2cccc(Nc3cnc4[nH]ncc4c3)c2C1=O)C(F)(F)F` [Example 73, 2-[1-oxo-7-(1H-pyrazolo[3,4-b]pyridin-5-ylamino)isoindolin-2-yl]-N-[(1S)-2,2,2-trifluoro-1-methyl-ethyl]acetamide], the results for the IC50 on Recombinant human DDR1 and on Recombinant human DDR2 were less than 10 nM and 10 to 100 nM, respectively.
Taken in the same sequence, the figures for `O=C1c2c(cccc2Nc2cnc3[nH]ncc3c2)CN1CC(=O)N1CCC[C@H]1C(F)(F)F` [Example 74, 2-[2-oxo-2-[(2S)-(trifluoromethyl)pyrrolidin-1-yl]ethyl]-7-(1H-pyrazolo[3,4-b]pyridin-5-ylamino)isoindolin-1-one] were less than 10 nM and less than 10 nM.
As to `O=C(CN1Cc2cccc(Nc3cnc4[nH]ncc4c3)c2C1=O)NC1CC1(F)F` (stereo not drawn) [Example 75, N-(2,2-difluorocyclopropyl)-2-[1-oxo-7-(1H-pyrazolo[3,4-b]pyridin-5-ylamino)isoindolin-2-yl]acetamide], the IC50 on Recombinant human DDR1 was 10 to 100 nM; on Recombinant human DDR2, 100 to 1000 nM.
Taken in the same sequence, the figures for `CN(CC(F)(F)F)C(=O)CN1Cc2cccc(Nc3cnc4[nH]ncc4c3)c2C1=O` [Example 76, N-methyl-2-[1-oxo-7-(1H-pyrazolo[3,4-b]pyridin-5-ylamino)isoindolin-2-yl]-N-(2,2,2-trifluoroethyl)acetamide] were 10 to 100 nM and 10 to 100 nM.
Taken in the same sequence, the figures for `C[C@H](N(C)C(=O)CN1Cc2cccc(Nc3cnc4[nH]ncc4c3)c2C1=O)C(F)(F)F` [Example 77, N-methyl-2-[1-oxo-7-(1H-pyrazolo[3,4-b]pyridin-5-ylamino)isoindolin-2-yl]-N-[(1S)-2,2,2-trifluoro-1-methyl-ethyl]acetamide] were 10 to 100 nM and 10 to 100 nM.
Turning to `Cc1n[nH]c2cc(N(C)c3cccc4c3C(=O)N(CC(=O)NCC(F)(F)F)C4)ccc12` [Example 78, 2-[7-[methyl-(3-methyl-1H-indazol-6-yl)amino]-1-oxo-isoindolin-2-yl]-N-(2,2,2-trifluoroethyl)acetamide], the values for the IC50 at Recombinant human DDR1 and on Recombinant human DDR2 were 10 to 100 nM and 100 to 1000 nM, respectively.
Take `Cn1ncc2cc(Nc3cccc4c3C(=O)N(CC(=O)NCC(F)(F)F)C4(F)F)ccc21` [Example 79, 2-[1,1-difluoro-4-[(1-methylindazol-5-yl)amino]-3-oxo-isoindolin-2-yl]-N-(2,2,2-trifluoroethyl)acetamide]: the IC50 on Recombinant human DDR1 was 10 to 100 nM. The “DDR2 pIC50” value on Recombinant human DDR2 is “D (pIC50≤6)”.
